US9403843B2, “Cysteine protease inhibitors and uses thereof” (The Trustees of Columbia University in the City of New York, priority 2012, dated 2016)
Entries after “also recorded” stand apart in the source; their conditions may differ. Like-named read-outs stand apart in the source and are kept apart here.

Legend:
full-length human Cal1 [1] = target: T1, full-length human Cal1 (Homo sapiens (Human), UniProt P07384); assay: Calpain inhibition FRET assay; type: biochemical; details: Table 3, 20 min incubation, FRET substrate
T1 sequence (P07384 whole entry): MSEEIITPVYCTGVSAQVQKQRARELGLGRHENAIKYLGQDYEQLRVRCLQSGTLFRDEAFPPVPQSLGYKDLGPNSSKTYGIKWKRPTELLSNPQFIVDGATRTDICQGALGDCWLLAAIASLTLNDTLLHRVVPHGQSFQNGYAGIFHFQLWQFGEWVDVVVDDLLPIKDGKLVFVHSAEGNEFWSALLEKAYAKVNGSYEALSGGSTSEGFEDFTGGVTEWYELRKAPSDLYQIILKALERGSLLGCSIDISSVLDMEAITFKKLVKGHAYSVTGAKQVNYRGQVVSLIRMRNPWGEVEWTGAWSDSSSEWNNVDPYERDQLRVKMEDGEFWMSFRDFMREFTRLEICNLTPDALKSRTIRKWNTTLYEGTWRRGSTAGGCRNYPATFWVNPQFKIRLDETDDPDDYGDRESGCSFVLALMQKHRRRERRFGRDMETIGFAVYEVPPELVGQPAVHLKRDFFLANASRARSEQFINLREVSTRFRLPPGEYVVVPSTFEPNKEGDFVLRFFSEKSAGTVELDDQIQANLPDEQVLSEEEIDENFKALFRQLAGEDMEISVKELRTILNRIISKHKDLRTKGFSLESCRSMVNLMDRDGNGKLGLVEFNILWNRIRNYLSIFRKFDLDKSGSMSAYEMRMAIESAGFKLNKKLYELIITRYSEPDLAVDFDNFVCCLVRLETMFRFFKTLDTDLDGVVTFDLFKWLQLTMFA
T1 sequence (P04632 whole entry partner): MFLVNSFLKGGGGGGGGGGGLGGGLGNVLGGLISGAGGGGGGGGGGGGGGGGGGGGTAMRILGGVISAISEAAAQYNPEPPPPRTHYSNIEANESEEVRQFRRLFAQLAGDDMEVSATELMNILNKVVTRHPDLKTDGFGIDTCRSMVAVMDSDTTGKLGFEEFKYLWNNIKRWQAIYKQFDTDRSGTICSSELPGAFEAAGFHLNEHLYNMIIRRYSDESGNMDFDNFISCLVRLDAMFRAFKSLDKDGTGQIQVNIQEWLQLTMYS

full-length human Cal1 [2] = target: T1, full-length human Cal1; assay: Calpain inhibition FRET assay; type: biochemical; details: for IC50: Table 2, approximate IC50, read-out: Cal I IC50
Experimental: Calpain activity was measured using full-length human Cal1 in the presence of a FRET substrate. IC50 values were approximated by co-incubation of varying concentrations of the appropriate inhibitor (10, 100, 500, 1000 nM) in the presence of the FRET substrate (DABCYL)TPLK-SPPSPR-(EDANS) (SEQ ID NO: 5) and activation buffer. […] A peptide inhibitor, Z-LLY-FMK (SEQ ID NO: 6), was used as a positive control.
The Calbiochem InnoZyme activity kit was used for measuring the inhibition effect inhibitors on human erythrocyte calpain 1 activity. […] 20 μM of the FRET substrate, 10 nM of native Cal1, and 20 μM TCEP (reducing agent) were added to the reaction mixture containing assay buffer (Tris [10 mM], NaCl [100 mM], pH 7.4). Cal1 was activated by the addition of 10 μM calcium. Cleavage of the scissile bond amide bond, K-S, releases the fluorophore (EDANS) from the internal quenching molecule (DABCYL), resulting in an increase in fluorescence measured at 320 nm excitation and 480 nm emission wave lengths for 30 min. Each inhibitor was added to the reaction mixture at varying concentrations (10 nM, 100 nM, 1 μM, and 10 μM) to detect inhibition of Cal1 and reduction in fluorescence was measured by 96 well-plate reader. Approximate IC50 values of each compound were generated using linear regression within Graphpad Prism Software.

[3] = >1: inhibition not quantifiable at 1 μM

IC50 (full-length human Cal1 [2]) | Compound | also measured
275 nM | C#CCNC(=O)[C@H](CC(C)C)NC(=O)[C@H]1O[C@@H]1C(=O)O [Compound 88] | –
> 1000 nM | CCOC(=O)[C@H]1O[C@@H]1C(=O)N[C@@H](Cc1cnc[nH]1)C(=O)Nc1nc(-c2ccc(F)cc2)cs1 [Compound 78] | –
> 1000 nM | CCOC(=O)[C@@H]1O[C@H]1C(=O)N[C@@H](Cc1cnc[nH]1)C(=O)Nc1nc(-c2ccc(F)cc2)cs1 [Compound 77] | –
> 1000 nM | CCOC(=O)[C@H]1O[C@@H]1C(=O)NCc1ccc(CO)cc1 [Compound 82] | –
50 nM | CC(C)C[C@H](NC(=O)[C@H]1O[C@@H]1C(=O)O)C(=O)NCc1cn(-c2ccc(S(N)(=O)=O)cc2)nn1 [Compound 87] | –
30 nM | CC(C)C[C@H](NC(=O)[C@H]1O[C@@H]1C(=O)O)C(=O)NCc1cn(-c2ccc(F)cc2)nn1 [Compound 86] | –
> 1000 nM | CCOC(=O)[C@@H]1O[C@H]1C(=O)N[C@@H](CC(C)C)C(=O)Nc1c(F)cccc1F [Compound 80] | –
> 1000 nM | O=C(O)[C@H]1O[C@@H]1C(=O)NCc1ccc(CO)cc1 [Compound 83] | –
> 1000 nM | CCOC(=O)[C@H]1O[C@@H]1C(=O)N[C@@H](CC(C)C)C(=O)Nc1c(F)cccc1F [Compound 81] | –
> 10000 nM | CCOC(=O)[C@H]1O[C@@H]1C(=O)N[C@@H](Cc1cnc[nH]1)C(=O)Nc1ccccc1 [Compound 85] | –
2500 nM | CCOC(=O)[C@H]1O[C@@H]1C(=O)N[C@@H](CC(C)C)C(=O)Nc1ccccc1 [Compound 84] | –
> 1000 nM | CCOC(=O)[C@@H]1O[C@H]1C(=O)NCc1ccc(CO)cc1 [Compound 79] | –

Second part, the molecule before the results:

Compound | IC50 (full-length human Cal1 [2]) | also measured
CC(C)C[C@H](NC(=O)[C@H]1O[C@@H]1C(=O)O)C(=O)Nc1c(F)cccc1F [Compound 23a, (2S,3S)-3-((S)-1-(2,6-difluorophenylamino)-4-methyl-1-oxopentan-2-ylcarbamoyl)oxirane-2-carboxylic acid] | 50 nM | IC50 (full-length human Cal1 [1]): 100 nM
CCOC(=O)[C@H]1OC1C(=O)N[C@@H](CC(C)C)C(=O)NCCCCNC(=O)CCCC[C@@H]1SC[C@@H]2NC(=O)N[C@@H]21 (stereo partly drawn) [Compound 59] | > 1000 nM | –
Cc1cc(C)c(NC(=O)[C@H](Cc2cnc[nH]2)NC(=O)[C@H]2O[C@@H]2C(=O)O)c(C)c1 [Compound 29, (2S,3S)-3-((S)-3-(1H-imidazol-5-yl)-1-(mesitylamino)-1-oxopropan-2-ylcarbamoyl)oxirane-2-carboxylic acid] | 5000 nM | –
CC(C)C[C@H](NC(=O)[C@H]1O[C@@H]1C(=O)O)C(=O)N(C)c1nc(-c2ccc(F)cc2)cs1 [Compound 72] | 200 nM | –
O=C(Nc1nc2ccc(F)cc2s1)[C@H](Cc1c[nH]cn1)NC(=O)[C@H]1O[C@@H]1C(=O)O [Compound 31a, (2S,3S)-3-((S)-1-(6-fluorobenzo[d]thiazol-2-ylamino)-3-(1H-imidazol-4-yl)-1-oxopropan-2-ylcarbamoyl)oxirane-2-carboxylic acid] | 535 nM | –
Cn1cncc1C[C@H](NC(=O)[C@H]1O[C@@H]1C(=O)O)C(=O)Nc1nc(-c2ccc(F)cc2)cs1 [Compound 35, (2S,3S)-3-((S)-1-(4-(4-fluorophenyl)thiazol-2-ylamino)-3-(1-methyl-1H-imidazol-5-yl)-1-oxopropan-2-ylcarbamoyl)oxirane-2-carboxylic acid] | 5000 nM | –
CC(C)C[C@H](NC(=O)[C@H]1O[C@@H]1C(=O)O)C(=O)Nc1ccccc1 [Compound 22, (2S,3S)-3-((S)-4-methyl-1-oxo-1-(phenylamino)pentan-2-ylcarbamoyl)oxirane-2-carboxylic acid] | 100 nM | –
NS(=O)(=O)c1ccc(-n2cc(CNC(=O)[C@H](Cc3cscn3)NC(=O)[C@H]3O[C@@H]3C(=O)O)nn2)cc1 [Compound 53, (2S,3S)-3-((S)-1-oxo-1-((1-(4-sulfamoylphenyl)-1H-1,2,3-triazol-4-yl)methylamino)-3-(thiazol-4-yl)propan-2-ylcarbamoyl)oxirane-2-carboxylic acid] | > 1000 nM | IC50 (full-length human Cal1 [1]; [3]): > 1000 nM; Cal1 inhibition (in words) (full-length human Cal1 [2]): relatively high IC50 values
CCOC(=O)[C@@H]1O[C@H]1C(N)=O [Compound 76] | > 1000 nM | –
O=C(Nc1ccccc1)[C@H](Cc1cnc[nH]1)NC(=O)[C@H]1O[C@@H]1C(=O)O [Compound 28, (2S,3S)-3-((S)-3-(1H-imidazol-4-yl)-1-oxo-1-(phenylamino)propan-2-ylcarbamoyl)oxirane-2-carboxylic acid] | 5000 nM | –
O=C(NCc1cn(-c2ccccc2)nn1)[C@H](Cc1cscn1)NC(=O)[C@H]1O[C@@H]1C(=O)O [Compound 49, (2S,3S)-3-((S)-1-oxo-1-((1-phenyl-1H-1,2,3-triazol-4-yl)methylamino)-3-(thiazol-4-yl)propan-2-ylcarbamoyl)oxirane-2-carboxylic acid] | – | IC50 (full-length human Cal1 [1]; [3]): 1000 nM
CCOC(=O)[C@H]1O[C@@H]1C(=O)N[C@@H](CC(C)C)C(=O)Nc1nc(-c2ccc(F)cc2)cs1 [Compound 70] | > 1000 nM | –
O=C(Nc1ccccc1)[C@H](Cc1cscn1)NC(=O)[C@H]1O[C@@H]1C(=O)O [Compound 32, (2S,3S)-3-((S)-1-oxo-1-(phenylamino)-3-(thiazol-4-yl)propan-2-ylcarbamoyl)oxirane-2-carboxylic acid] | – | IC50 (full-length human Cal1 [1]; [3]): 2500 nM
CCOC(=O)[C@@H]1O[C@H]1C(=O)N[C@@H](CC(C)C)C(=O)Nc1nc(-c2ccc(F)cc2)cs1 [Compound 75] | > 1000 nM | –
CC(C)NC(=O)[C@@H]1O[C@H]1C(=O)O [Compound 74] | > 1000 nM | –
O=C(NCc1cn(-c2c(F)cccc2F)nn1)[C@H](Cc1cscn1)NC(=O)[C@H]1O[C@@H]1C(=O)O [Compound 57, (2S,3S)-3-((S)-1-((1-(2,6-difluorophenyl)-1H-1,2,3-triazol-4-yl)methylamino)-1-oxo-3-(thiazol-4-yl)propan-2-ylcarbamoyl)oxirane-2-carboxylic acid] | > 1000 nM | IC50 (full-length human Cal1 [1]; [3]): > 1000 nM; Cal1 inhibition (in words) (full-length human Cal1 [2]): relatively high IC50 values
CCOC(=O)[C@H]1O[C@@H]1C(=O)N[C@@H](CC(C)C)C(=O)N(C)c1nc(-c2ccc(F)cc2)cs1 [Compound 71] | > 1000 nM | –
O=C(NCc1cn(-c2cc(C(F)(F)F)cc(C(F)(F)F)c2)nn1)[C@H](Cc1cscn1)NC(=O)[C@H]1O[C@@H]1C(=O)O [Compound 54, (2S,3S)-3-((S)-1-((1-(3,5-bis(trifluoromethyl)phenyl)-1H-1,2,3-triazol-4-yl)methylamino)-1-oxo-3-(thiazol-4-yl)propan-2-ylcarbamoyl)oxirane-2-carboxylic acid] | > 1000 nM | IC50 (full-length human Cal1 [1]; [3]): > 1000 nM; Cal1 inhibition (in words) (full-length human Cal1 [2]): relatively high IC50 values; also recorded: weak activity
CCOC(=O)[C@@H]1O[C@H]1C(=O)NC(C)C [Compound 73] | > 1000 nM | –
CC(C)C[C@H](NC(=O)[C@H]1O[C@@H]1C(=O)O)C(=O)NCCCCNS(=O)(=O)c1ccc(F)cc1 [Compound 68] | 100 nM | –
CCOC(=O)[C@H]1OC1C(=O)N[C@@H](CC(C)C)C(=O)NCCCCNS(=O)(=O)c1ccc(F)cc1 (stereo partly drawn) [Compound 63] | > 1000 nM | –
O=C(NCc1cn(-c2ccc([N+](=O)[O-])cc2)nn1)[C@H](Cc1cscn1)NC(=O)[C@H]1O[C@@H]1C(=O)O [Compound 56, (2S,3S)-3-((S)-1-((1-(4-nitrophenyl)-1H-1,2,3-triazol-4-yl)methylamino)-1-oxo-3-(thiazol-4-yl)propan-2-ylcarbamoyl)oxirane-2-carboxylic acid] | – | IC50 (full-length human Cal1 [1]): 300 nM; Cal1 inhibition (in words) (full-length human Cal1 [2]): potent activity
CCOC(=O)[C@H]1O[C@@H]1C(=O)NC1(C(=O)NCCCCNS(=O)(=O)c2ccc(F)cc2)CCCCC1 [Compound 69] | > 1000 nM | –
CC(C)C[C@H](NC(=O)C1OC1c1ccccc1)C(=O)NCCCCNC(=O)CCCCC1CCSS1 (stereo partly drawn) [Compound 62] | > 1000 nM | –
O=C(NCc1cn(-c2ccc(S(=O)(=O)N3CCCCC3)cc2)nn1)[C@H](Cc1cscn1)NC(=O)[C@H]1O[C@@H]1C(=O)O [Compound 51, (2S,3S)-3-((S)-1-oxo-1-((1-(4-(piperidin-1-ylsulfonyl)phenyl)-1H-1,2,3-triazol-4-yl)methylamino)-3-(thiazol-4-yl)propan-2-ylcarbamoyl)oxirane-2-carboxylic acid] | – | IC50 (full-length human Cal1 [1]; [3]): 1500 nM
O=C(NCc1cn(-c2ccc3c(c2)OCO3)nn1)[C@H](Cc1cscn1)NC(=O)[C@H]1O[C@@H]1C(=O)O [Compound 52, (2S,3S)-3-((S)-1-((1-(benzo[d][1,3]dioxol-5-yl)-1H-1,2,3-triazol-4-yl)methylamino)-1-oxo-3-(thiazol-4-yl)propan-2-ylcarbamoyl)oxirane-2-carboxylic acid] | 400 nM | Cal1 inhibition (in words) (full-length human Cal1 [2]): potent activity
O=C(Nc1nc(-c2ccc(F)cc2)cs1)[C@H](Cc1c[nH]cn1)NC(=O)[C@@H]1O[C@H]1C(=O)O [Compound 30b, (2R,3R)-3-((S)-1-(4-(4-fluorophenyl)thiazol-2-ylamino)-3-(1H-imidazol-4-yl)-1-oxopropan-2-ylcarbamoyl)oxirane-2-carboxylic acid] | > 1000 nM | IC50 (full-length human Cal1 [1]; [3]): > 1000 nM
CC(C)C[C@H](NC(=O)C1OC1c1ccccc1)C(=O)NCCCCNC(=N)N (stereo partly drawn) [Compound 65] | > 1000 nM | –
C#CCNC(=O)[C@H](CC(C)C)NC(=O)C1OC1c1ccccc1 (stereo partly drawn) [Compound 60] | > 1000 nM | –
